Our source for the TGI values is PubChem BioAssay (NCI).

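48-hour exposure; five concentrations; linearly interpolated endpoints. TGI denotes the concentration required for complete inhibition of growth.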

Among the test systems are TK-10 renal; OVCAR-4 ovarian; CAKI-1 renal; SNB-19 CNS; KM12 colon; HCT-116 colon; 786-0 renal; UACC-62 melanoma; EKVX NSCLC; HT29 colon; PC-3 prostate.
Common to all, as to test: inhibition of tumour cell growth, NCI panel, 48 h

For the molecule `CC(=O)C1=CSC2[C@H](NC(=O)Cc3ccccc3)C(=O)N2C1C(=O)OC(c1ccccc1)c1ccccc1` (some centres undefined), the TGI in the assay with TK-10 renal, with OVCAR-4 ovarian, with CAKI-1 renal, with SNB-19 CNS, in the assay with KM12 colon and in the assay with HCT-116 colon was over 100 µM throughout. Moreover, the TGI in the assay on 786-0 renal, with UACC-62 melanoma, with EKVX NSCLC and with HT29 colon was over 100 µM each time.
In the case of `CCCC(=O)NC1=C(NCC)C(=O)c2ccccc2C1=O`, the TGI with TK-10 renal, with OVCAR-4 ovarian, with PC-3 prostate, in the assay on SNB-19 CNS, in the assay on KM12 colon and with HCT-116 colon was over 100 µM each time. Besides, the TGI with 786-0 renal, in the assay with UACC-62 melanoma and in the assay on HT29 colon was over 100 µM throughout.
Turning to `C/C(=N\Nc1nc2ccccc2s1)c1ncccn1`, the TGI was 11.1 µM in the assay with PC-3 prostate; 5.62 µM with CAKI-1 renal; over 100 µM with SNB-19 CNS; 9.46 µM in the assay on KM12 colon; 15.8 µM in the assay on 786-0 renal; 1.06 µM in the assay on UACC-62 melanoma. This molecule also showed a TGI in the assay on EKVX NSCLC of 4.54 µM.
Turning to `CCO[C@]12C[C@H](OC)[C@@]3(O)CC(C1[C@H]3OCc1ccccc1)C13C4C2[C@H](OC)C1[C@](COC)(CN4CC)[C@H](O)C[C@@H]3OC` (some centres undefined), the TGI in the assay with TK-10 renal, with OVCAR-4 ovarian, in the assay with SNB-19 CNS, in the assay with HCT-116 colon, in the assay on 786-0 renal and in the assay on UACC-62 melanoma was over 100 µM each time. Also, the TGI with EKVX NSCLC and with HT29 colon was over 100 µM each time.
Consider `CC1CCCc2c(C#N)c(N)nc(-c3ccc(Cl)cc3)c21` (centres undefined), for which the TGI in the assay with TK-10 renal is over 100 µM; with PC-3 prostate it was 42.9 µM; in the assay with CAKI-1 renal, over 100 µM; in the assay on SNB-19 CNS it was over 100 µM; with KM12 colon it was over 100 µM; in the assay with HCT-116 colon it was over 100 µM. The TGI is 38.2 µM with 786-0 renal, 38.2 µM in the assay on UACC-62 melanoma, over 100 µM in the assay on EKVX NSCLC and 44.4 µM in the assay with HT29 colon.
As for `C=CCOC(=O)/C(=C\c1ccc(OC)c(OC)c1)c1ccc(OC)c(OC)c1`, the TGI in the assay with TK-10 renal, in the assay on PC-3 prostate, with CAKI-1 renal, with SNB-19 CNS, in the assay with KM12 colon and in the assay with HCT-116 colon was over 100 µM throughout. Besides, the TGI in the assay with 786-0 renal, with UACC-62 melanoma, with EKVX NSCLC and in the assay with HT29 colon was over 100 µM each time.
`CN(C)c1ccc(C=C2C(=O)OC(C)(C)OC2=O)cc1Br`: the TGI with TK-10 renal, in the assay on OVCAR-4 ovarian, with CAKI-1 renal, in the assay with SNB-19 CNS, with KM12 colon and with HCT-116 colon was over 100 µM in each case. The TGI with 786-0 renal, in the assay on UACC-62 melanoma, with EKVX NSCLC and with HT29 colon was over 100 µM in each case.
For the molecule `CN(C)CCNC(=O)c1cccc2c(NCC(=O)O)c3ccccc3nc12`, the TGI with TK-10 renal is over 100 µM; in the assay on OVCAR-4 ovarian it was 30.9 µM; in the assay with PC-3 prostate, 55.2 µM; in the assay with SNB-19 CNS, 72.1 µM; in the assay on KM12 colon it was 60.7 µM; with HCT-116 colon, 67.4 µM. Also, the TGI in the assay on 786-0 renal was found to be 62.7 µM; in the assay on UACC-62 melanoma it was 48.1 µM; with EKVX NSCLC it was 56.4 µM; in the assay on HT29 colon it was 17.7 µM.
As to `CC12NN=NC1C(=O)NC2=O` (centres undefined), the TGI in the assay on TK-10 renal, in the assay with OVCAR-4 ovarian, in the assay with CAKI-1 renal, in the assay with SNB-19 CNS, with KM12 colon and with HCT-116 colon was over 100 µM throughout. Moreover, the TGI in the assay on 786-0 renal, in the assay with UACC-62 melanoma, in the assay on EKVX NSCLC and in the assay with HT29 colon was over 100 µM in each case.
In the case of `CN(C)CCCNC(=O)N/N=C/c1cccc([N+](=O)[O-])c1`, the TGI in the assay on TK-10 renal, in the assay with OVCAR-4 ovarian, in the assay with SNB-19 CNS, with KM12 colon, in the assay with HCT-116 colon and in the assay with 786-0 renal was over 100 µM throughout. The TGI with UACC-62 melanoma and with HT29 colon was over 100 µM in each case.
On to `Cn1c(/C=C(\O)c2ccc(Cl)cc2)nc2ccccc21`, for which the TGI with OVCAR-4 ovarian is over 100 µM; with CAKI-1 renal, 97 µM; with SNB-19 CNS it was over 100 µM; in the assay on KM12 colon, over 100 µM; in the assay on HCT-116 colon, over 100 µM; in the assay with 786-0 renal, over 100 µM. For the same molecule, the figures for the TGI in the assay with UACC-62 melanoma, with EKVX NSCLC and with HT29 colon were over 100 µM, 84.8 µM and over 100 µM, respectively.
Turning to `COc1cc(OC)c(/C=C2\N=C(C)N(Nc3nnc(NN4C(=O)/C(=C/c5c(OC)cc(OC)cc5OC)N=C4C)c4ccccc34)C2=O)c(OC)c1`, the TGI with OVCAR-4 ovarian, with SNB-19 CNS, in the assay on KM12 colon, in the assay with HCT-116 colon, in the assay on 786-0 renal and in the assay with UACC-62 melanoma was over 100 µM throughout. The TGI in the assay on EKVX NSCLC and in the assay with HT29 colon was over 100 µM each time.
As to `O=C(NNC1=NCCN1)c1ccco1`, the TGI in the assay with TK-10 renal, in the assay with OVCAR-4 ovarian, in the assay with PC-3 prostate, in the assay on SNB-19 CNS, with KM12 colon and in the assay with HCT-116 colon was over 100 µM in each case. Moreover, the TGI with 786-0 renal, in the assay on UACC-62 melanoma, in the assay on EKVX NSCLC and in the assay on HT29 colon was over 100 µM throughout.
In the case of `COc1c2c(cc3oc(C)cc(=O)c13)OC(=N)C(C(N)=O)C2CC(=O)c1ccc(N)cc1` (centres undefined), the TGI in the assay on TK-10 renal, in the assay with OVCAR-4 ovarian, in the assay with PC-3 prostate, in the assay with CAKI-1 renal, in the assay on SNB-19 CNS and in the assay with KM12 colon was over 100 µM in each case. Besides, the TGI in the assay with HCT-116 colon, in the assay on 786-0 renal, with UACC-62 melanoma and in the assay with EKVX NSCLC was over 100 µM throughout.
